The test deals with HEK-293T cells. The test is described as follows: cAMP production in parental HEK-293T cells lacking RXFP1. The format is cell-based. Particulars: parental HEK-293T cells (lack RXFP1); H2R 10 ng/mL. (Changes in cAMP serve as a functional read-out for many G protein-coupled receptors.)

On to “H2R: ~6 kd peptide hormone, 24 amino acid A chain (SEQ ID NO:5) and 29 amino acid B chain (SEQ ID NO:6) linked by disulfide bridges (chain 1 ZLYSALANKCCHVGCTKRSLARFC; chain 2 DSWMEEVIKLCGRELVRAQIAICGMSTWS; disulfide bridges; listed as Homo sapiens)”, for which the “cAMP response in parental cells” value is “no cAMP response”.

The values above are taken from US20160060322A1, “RELAXIN-LIKE PEPTIDES AND USES THEREOF” (ANGION BIOMEDICA CORP., priority 2012, published 2016).
